Data as given in paper PMC10567728, “Targeted imaging of uPAR expression in vivo with cyclic AE105 variants” (Scientific Reports, 2023).
Values joined by “and” are separate entries in the source; they are usually repeats but may differ in a detail not shown here. Equal entries are not always repeated. Where two headings read alike, the source gives them in different places. Positions of bridges follow the written chain, without caps; N, C: chain ends. Non-standard residues stand in square brackets, D forms with d. Residues, ends and D or L forms follow the SMILES beside them. *: point of attachment. DOTA = O=C(O)CN1CCN(CC(=O)O)CCN(CC(=O)*)CCN(CC(=O)O)CC1; Cha = N[C@@H](CC1CCCCC1)C(=O)O

Tests used:
uPAR•uPA interaction = molecular target: T1, uPAR•uPA interaction (Homo sapiens, UniProt Q03405); assay: SPR competition assay of the uPAR•uPA interaction; assay type: binding; conditions: for IC50: competition of uPAR•uPA interaction, 2 nM uPAR, 20 °C, n = 3
T1 construct: Recombinant human uPAR^1–283 was expressed; made in house; host or cells: Drosophila melanogaster S2 cells
T1 sequence (Q03405 23-305): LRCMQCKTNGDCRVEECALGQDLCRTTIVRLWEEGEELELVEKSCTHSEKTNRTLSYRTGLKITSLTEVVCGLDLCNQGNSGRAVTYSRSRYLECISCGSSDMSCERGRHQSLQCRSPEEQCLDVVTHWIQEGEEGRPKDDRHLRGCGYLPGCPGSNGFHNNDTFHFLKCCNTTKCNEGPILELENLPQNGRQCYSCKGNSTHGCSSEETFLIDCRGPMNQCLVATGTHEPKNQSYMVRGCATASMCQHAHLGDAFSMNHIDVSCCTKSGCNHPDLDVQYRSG
Method: The IC50-values of antagonistic peptides on the uPAR•uPA interaction were determined with SPR using a Biacore T200™ or Biacore 3000™ instruments (Cytiva) essentially as described[4],[56],[77]. In brief, we immobilized high levels of pro-uPA^S356A (0.1 pmol pro-uPA/mm^2) on a CM5 sensor chip via amine coupling. The experiments were conducted by injecting 2 nM uPAR in presence of a threefold dilution series of a given antagonistic peptide for 300 s with a flow rate of 50 µL/min at 20 °C. The high immobilization levels result in binding conditions that are entirely controlled by mass transport limitations (MTL). Accordingly, the observed association rates (vobs) are directly proportional to the concentrations of binding-active uPAR in solution. To determine the IC50, we also measured a standard curve of uPAR binding (a twofold dilution series of 0.06 to 2 nM uPAR, linear due to MTL). The running buffer was 10 mM HEPES, 150 mM NaCl, 3 mM EDTA, and 0.05% (v/v) surfactant P-20 at pH 7.4, and the regeneration buffer was 0.1 M acetic acid in 0.5 M NaCl.

uPAR [1] = molecular target: T2, uPAR (Homo sapiens, UniProt Q03405); assay: SPR real-time binding kinetics, peptides in solution and immobilised uPAR
T2 construct: Recombinant human uPAR^1–283 was expressed; made in house; host or cells: Drosophila melanogaster S2 cells
T2 sequence (Q03405 23-305): as above
Method: The real-time binding kinetics of uPAR•peptide interactions were measured with SPR using a Biacore T200™(Cytiva); essentially as described in[56],[77]. In brief, uPAR was covalently immobilised on a CM5 sensor chip via amine coupling resulting in a surface density of 1157–1581 RU (~ 33–44 fmol/mm^2). The binding kinetics for the peptides to immobilised uPAR were measured using a single cycle protocol. In this setup, peptides were injected as five serial two-fold dilutions with a contact time of 200 s. After the last analyte injection, the dissociation time was set to 1000 s. The sensor chip was regenerated with two consecutive injections of 0.1 M acetic acid in 0.5 M NaCl. All experiments were conducted at 20 °C with a flow rate of 50 µL/min in 10 mM HEPES, 150 mM NaCl, 3 mM EDTA, and 0.05% (v/v) surfactant P-20 at pH 7.4. The kinetic rate constants (kon and koff) were determined by non-linear regression fitting of the curves to the simple bimolecular interaction model (BiacoreT200 Evaluation™ 3.0 software).

uPAR [2] = molecular target: T2, uPAR; assay: Nano-DSF thermal stability of uPAR•peptide complexes; conditions: for Tm (apparent melting temperature of uPAR•peptide complex): 15 µM uPAR, 30 µM peptide, PBS pH 7.4, n = 3
Method: The thermal stability of the uPAR•peptide complexes was analyzed with Nano-DSF using a Prometheus NT.48™ (Nanotemper). uPAR (15 µM) was mixed with twofold excess of peptide (30 µM) in PBS pH 7.4 and incubated for 15 min at RT to ensure complex formation. Samples containing either 15 µM uPAR or 30 µM of each peptide were included as controls. The samples were loaded into standard capillaries and in triplicates. To unfold the proteins, the samples were exposed to an increasing temperature gradient from 20 to 95 °C with a ramping rate of 1 °C/min. The excitation power was set to 50% (Ex.280 nm) and the fluorescence emission collected at 330 nm and 350 nm. The melting temperatures of the complexes were determined in the PR.ThermControl software (Nanotemper) from the first derivative of the fluorescence ratio (350 nm/330 nm).

[3] = [63Cu]-DOTA labelled peptides, single-cycle SPR
[4] = single cycle SPR, immobilised uPAR, 20 °C
[5] = single cycle SPR, immobilised uPAR, 20 °C, 1:1 model
[6] = single cycle SPR, immobilised uPAR, 20 °C, read-out: kon

Row | SMILES | IC50 (uPAR•uPA interaction) [nM] | koff (uPAR [1]; [4]) [s⁻¹] | Kd (uPAR [1]; [5]) | kon (uPAR [1]; [6]) [M⁻¹ s⁻¹] | Tm (apparent melting temperature of uPAR•peptide complex) (uPAR [2]) | also measured
1 | CC(C)C[C@H](NC(=O)[C@H](Cc1ccc(O)cc1)NC(=O)[C@@H](CCCNC(=N)N)NC(=O)[C@@H](CO)NC(=O)[C@H](Cc1ccccc1)NC(=O)[C@H](CC1CCCCC1)NC(=O)[C@H](CC(=O)O)NC(=O)CN1CCN(CC(=O)O)CCN(CC(=O)O)CCN(CC(=O)O)CC1)C(=O)N[C@@H](Cc1c[nH]c2ccccc12)C(=O)N[C@@H](CO)C(=O)O [1b] | 48 ± 2 | 0.00557 ± 1e-05 | 26.9 nM | 207000 ± 1000 | 58.8 °C | IC50 of DOTA-conjugated peptide compared to unconjugated peptide (uPAR•uPA interaction; (1b) vs (1), (8b) vs (8)): four to fivefold higher; Kd (uPAR [1]; [3]): 86.5 nM; koff (uPAR [1]; [3]): 0.0175 ± 0.0003 s⁻¹; kon (uPAR [1]; [3]): 2.02 ± 0.03 105 M-1 s-1; reduction of affinity on DOTA-conjugation (uPAR [1]; real-time binding kinetics, vs unconjugated peptides): 8–11 fold
2 | CC(C)C[C@@H]1NC(=O)[C@H](Cc2ccc(O)cc2)NC(=O)[C@H](NC(=O)[C@@H](CO)NC(=O)[C@H](Cc2ccccc2)NC(=O)[C@H](CC2CCCCC2)NC(=O)[C@H](CC(=O)O)NC(=O)CN2CCN(CC(=O)O)CCN(CC(=O)O)CCN(CC(=O)O)CC2)CSSC[C@@H](C(=O)O)NC(=O)[C@H](Cc2c[nH]c3ccccc23)NC1=O [3b] ({DOTA}-D[Cha]F[dS][dC]YLWC-OH; disulfide 5-9) | 10.9 ± 0.3 | 0.0044 ± 1e-05 | 12.5 nM | 352000 ± 1000 | ~ 70 °C | increase in apparent Tm (uPAR [2]; DOTA-conjugated peptides, compared to (1b)): approximately 11 °C
3 | CC(C)C[C@H](NC(=O)[C@H](Cc1ccc(O)cc1)NC(=O)[C@@H](CCCNC(=N)N)NC(=O)[C@@H](CO)NC(=O)[C@H](Cc1ccccc1)NC(=O)[C@H](CC1CCCCC1)NC(=O)[C@H](CC(=O)O)NC(=O)CNC(=O)CNC(=O)[C@@H](CO)NC(=O)CNC(=O)[C@H](CCC(=O)O)NC(=O)[C@H](CCC(=O)O)NC(=O)CN1CCN(CC(=O)O)CCN(CC(=O)O)CCN(CC(=O)O)CC1)C(=O)N[C@@H](Cc1c[nH]c2ccccc12)C(=O)N[C@@H](CO)C(=O)O [4b] ({DOTA}-EEG[dS]GGD[Cha]F[dS][dR]YLWS-OH) | 32.2 ± 0.9 | 0.00717 ± 1e-05 | 33.6 nM | 213000 ± 400 | 55.6 ± 0.03 °C | 
4 | CC(C)C[C@@H]1NC(=O)[C@H](Cc2ccc(O)cc2)NC(=O)[C@H](NC(=O)[C@@H](CO)NC(=O)[C@H](Cc2ccccc2)NC(=O)[C@H](CC2CCCCC2)NC(=O)[C@H](CC(=O)O)NC(=O)CNC(=O)CNC(=O)[C@@H](CO)NC(=O)CNC(=O)[C@H](CCC(=O)O)NC(=O)[C@H](CCC(=O)O)NC(=O)CN2CCN(CC(=O)O)CCN(CC(=O)O)CCN(CC(=O)O)CC2)CSSC[C@@H](C(N)=O)NC(=O)[C@H](Cc2c[nH]c3ccccc23)NC1=O [11b] ({DOTA}-EEG[dS]GGD[Cha]F[dS][dC]YLWC-NH2; disulfide 11-15) | 7.7 ± 0.2 | 0.003562 ± 3e-06 | 5 nM and 4.97 nM | 717000 ± 1000 |  | Kd (uPAR [1]; [3]): 22.6 nM; koff (uPAR [1]; [3]): 0.0036 ± 1e-05 s⁻¹
5 | CC(C)C[C@H](NC(=O)[C@H](Cc1ccc(O)cc1)NC(=O)[C@@H](CCCNC(=N)N)NC(=O)[C@@H](CO)NC(=O)[C@H](Cc1ccccc1)NC(=O)[C@H](CC1CCCCC1)NC(=O)[C@@H](N)CC(=O)O)C(=O)N[C@@H](Cc1c[nH]c2ccccc12)C(=O)N[C@@H](CO)C(=O)O [compound 1, AE105] | 8.8 ± 0.2 | 0.00396 ± 1e-05 | 2.52 nM | 1.568e+06 ± 5000 |  | 
6 | CC(C)C[C@H](NC(=O)[C@H](Cc1ccc(O)cc1)NC(=O)[C@@H](CCCCN)NC(=O)[C@@H](CO)NC(=O)[C@H](Cc1ccccc1)NC(=O)[C@H](CC1CCCCC1)NC(=O)[C@@H](N)CC(=O)O)C(=O)N[C@@H](Cc1c[nH]c2ccccc12)C(=O)N[C@@H](CO)C(=O)O [compound 2] (H-D[Cha]F[dS][dK]YLWS-OH; N-terminus assumed) | 50.9 ± 2 | 0.0298 ± 0.0001 | 50.2 nM | 594000 ± 3000 |  | 
7 | CC(C)C[C@@H]1NC(=O)[C@H](Cc2ccc(O)cc2)NC(=O)[C@H](NC(=O)[C@@H](CO)NC(=O)[C@H](Cc2ccccc2)NC(=O)[C@H](CC2CCCCC2)NC(=O)[C@@H](N)CC(=O)O)CSSC[C@@H](C(=O)O)NC(=O)[C@H](Cc2c[nH]c3ccccc23)NC1=O [compound 3] (H-D[Cha]F[dS][dC]YLWC-OH; disulfide 5-9; N-terminus assumed) | 6.5 ± 0.3 | 0.00365 ± 1e-05 | 3.32 nM | 1.098e+06 ± 4000 |  | 
8 | CC(C)C[C@H](NC(=O)[C@H](Cc1ccc(O)cc1)NC(=O)[C@@H](CO)NC(=O)[C@@H](CO)NC(=O)[C@H](Cc1ccccc1)NC(=O)[C@H](CC1CCCCC1)NC(=O)[C@H](CC(=O)O)NC(=O)CNC(=O)CNC(=O)[C@@H](CO)NC(=O)CNC(=O)[C@H](CCC(=O)O)NC(=O)[C@@H](N)CCC(=O)O)C(=O)N[C@@H](Cc1c[nH]c2ccccc12)C(=O)N[C@@H](CO)C(=O)O [compound 5] (H-EEG[dS]GGD[Cha]F[dS][dS]YLWS-OH; N-terminus assumed) |  | 0.054 ± 0.0003 |  | 201000 ± 2000 |  | fold decrease in potency (uPAR•uPA interaction; compared to (4)): 7.8 fold
9 | CC(C)C[C@@H]1NC(=O)[C@@H]2CCCN2C(=O)[C@H](NC(=O)[C@@H](CO)NC(=O)[C@H](Cc2ccccc2)NC(=O)[C@H](CC2CCCCC2)NC(=O)[C@H](CC(=O)O)NC(=O)CNC(=O)CNC(=O)[C@@H](CO)NC(=O)CNC(=O)[C@H](CCC(=O)O)NC(=O)[C@@H](N)CCC(=O)O)CSSC[C@@H](C(=O)O)NC(=O)[C@H](Cc2c[nH]c3ccccc23)NC1=O [compound 7] (H-EEG[dS]GGD[Cha]F[dS][dC]PLWC-OH; disulfide 11-15 (inferred); N-terminus assumed) |  |  |  |  |  | KD (uPAR [1]; [5]): N.B
10 | CC(C)C[C@H](NC(=O)[C@H](Cc1ccc(O)cc1)NC(=O)[C@@H](CCCNC(=N)N)NC(=O)[C@@H](CO)NC(=O)[C@H](Cc1ccccc1)NC(=O)[C@H](CC1CCCCC1)NC(=O)[C@@H](N)CC(=O)O)C(=O)N[C@@H](Cc1c[nH]c2ccccc12)C(=O)N[C@@H](CO)C(N)=O [compound 8] | 2.1 ± 0.1 | 0.000998 ± 1e-06 | 0.53 nM | 1.89e+06 ± 3000 |  | 
11 | CC(C)C[C@@H]1NC(=O)[C@H](Cc2ccc(O)cc2)NC(=O)[C@H](NC(=O)[C@@H](CO)NC(=O)[C@H](Cc2ccccc2)NC(=O)[C@H](CC2CCCCC2)NC(=O)[C@@H](N)CC(=O)O)CSSC[C@@H](C(N)=O)NC(=O)[C@H](Cc2c[nH]c3ccccc23)NC1=O [compound 9] (H-D[Cha]F[dS][dC]YLWC-NH2; disulfide 5-9; N-terminus assumed) | 8.9 ± 0.3 | 0.002063 ± 3e-06 | 2.9 nM | 712000 ± 2000 |  | 
12 | CC(C)C[C@@H]1NC(=O)[C@H](Cc2ccc(O)cc2)NC(=O)[C@H](NC(=O)[C@@H](CO)NC(=O)[C@H](Cc2ccccc2)NC(=O)[C@H](CC2CCCCC2)NC(=O)[C@H](CC(=O)O)NC(=O)CNC(=O)CNC(=O)[C@@H](CO)NC(=O)CNC(=O)[C@H](CCC(=O)O)NC(=O)[C@@H](N)CCC(=O)O)CSSC[C@@H](C(N)=O)NC(=O)[C@H](Cc2c[nH]c3ccccc23)NC1=O [compound 11] (H-EEG[dS]GGD[Cha]F[dS][dC]YLWC-NH2; disulfide 11-15; N-terminus assumed) |  | 0.005015 ± 8e-06 |  | 500000 ± 2000 | ~ 65 °C | 
